Values joined by “and” are separate entries in the source; they are usually repeats but may differ in a detail not shown here. Equal values may be shown once. Toxic doses and inconclusive results are not listed. No stated cut-off is given here; in the data, active means T/C of 150% or more; inactive means T/C below 125%.
Test system: L1210 leukemia ip in BDF1 mice, survival T/C
Experiment: NCI In Vivo Anticancer Drug Screen. Data for tumor model L1210 Leukemia (intraperitoneal) in B6D2F1 (BDF1) mice
Settings: endpoint: mean survival time, higher = longer survival
Procedure, shortened: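 Transplantable tumor model; survival measured in treated vs vehicle control mice. Value = treated/control.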

[1] = dose: 100.0 mg/kg/injection, schedule: Q04DX003 (ip), vehicle: Klucel (hydroxypropylcellulose) (HPC)
[2] = dose: 200.0 mg/kg/injection, schedule: Q04DX003 (ip), vehicle: Klucel (hydroxypropylcellulose) (HPC)
[3] = dose: 400.0 mg/kg/injection, schedule: Q04DX003 (ip), vehicle: Klucel (hydroxypropylcellulose) (HPC)
[4] = dose: 100.0 mg/kg/injection, schedule: Q01DX001 (ip), vehicle: other
[5] = dose: 200.0 mg/kg/injection, schedule: Q01DX001 (ip), vehicle: other
[6] = dose: 400.0 mg/kg/injection, schedule: Q01DX001 (ip), vehicle: other
[7] = dose: 100.0 mg/kg/injection, schedule: Q04DX003 (ip), vehicle: saline
[8] = dose: 200.0 mg/kg/injection, schedule: Q04DX003 (ip), vehicle: saline
[9] = dose: 100.0 mg/kg/injection, schedule: Q01DX009 (ip), vehicle: Klucel (hydroxypropylcellulose) (HPC)
[10] = dose: 200.0 mg/kg/injection, schedule: Q01DX009 (ip), vehicle: Klucel (hydroxypropylcellulose) (HPC)

Measured: T/C

O=[N+]([O-])c1cccc(/C=C/S(=O)(=O)c2ccccc2)c1
inactive: dose: 100.0 mg/kg/injection, schedule: Q01DX001 (ip), vehicle: Klucel (hydroxypropylcellulose) (HPC) 107 % of control | [1] 103 % of control | dose: 200.0 mg/kg/injection, schedule: Q01DX001 (ip), vehicle: Klucel (hydroxypropylcellulose) (HPC) 95 % of control | [2] 103 % of control | dose: 400.0 mg/kg/injection, schedule: Q01DX001 (ip), vehicle: Klucel (hydroxypropylcellulose) (HPC) 104 % of control | [3] 100 % of control

COC(=O)c1[nH]cnc1/N=N/Nc1ccc(Cl)c(Cl)c1
inactive: dose: 50.0 mg/kg/injection, schedule: Q01DX001 (ip), vehicle: other 94 % of control | [4] 95 % of control and 103 % of control | [5] 105 % of control and 110 % of control | [6] 97 % of control and 100 % of control

CC1(C)OC2C(CNCCO)OC(OCc3ccccc3)C2O1 (configuration not stated)
inactive: dose: 50.0 mg/kg/injection, schedule: Q04DX003 (ip), vehicle: saline 102 % of control | [7] 94 % of control | [8] 88 % of control

COC(=O)C1(C)CCC(c2ccc(OC)cc2)C(CC(=O)O)C1=O (configuration not stated)
inactive: dose: 100.0 mg/kg/injection, schedule: Q01DX009 (ip), vehicle: saline 93 % of control | [7] 95 % of control | [8] 98 % of control | dose: 400.0 mg/kg/injection, schedule: Q01DX009 (ip), vehicle: saline 90 % of control | dose: 400.0 mg/kg/injection, schedule: Q04DX003 (ip), vehicle: saline 93 % of control

COCCCNP(=S)(OC)OC
inactive: [4] 98 % of control | dose: 100.0 mg/kg/injection, schedule: Q04DX003 (ip), vehicle: other 98 % of control | [5] 105 % of control | dose: 200.0 mg/kg/injection, schedule: Q04DX003 (ip), vehicle: other 98 % of control | [6] 94 % of control | dose: 400.0 mg/kg/injection, schedule: Q04DX003 (ip), vehicle: other 101 % of control

CCc1[nH]c(=S)nc(-c2ccccc2)c1-c1ccc([N+](=O)[O-])cc1O
inactive: [1] 95 % of control | [2] 100 % of control | [3] 95 % of control

Cc1ccc2nn(-c3ccc(O)cc3)[n+]([O-])c2c1
inactive: dose: 100.0 mg/kg/injection, schedule: Q01DX001 (ip), vehicle: carboxymethylcellulose (CMC) 102 % of control | dose: 200.0 mg/kg/injection, schedule: Q01DX001 (ip), vehicle: carboxymethylcellulose (CMC) 107 % of control | dose: 400.0 mg/kg/injection, schedule: Q01DX001 (ip), vehicle: carboxymethylcellulose (CMC) 93 % of control

O=C(Nc1c[nH]c(=O)[nH]c1=O)Oc1ccccc1
inactive: [9] 98 % of control | [1] 100 % of control | [10] 95 % of control | [2] 88 % of control | dose: 400.0 mg/kg/injection, schedule: Q01DX009 (ip), vehicle: Klucel (hydroxypropylcellulose) (HPC) 93 % of control | [3] 100 % of control

O=C(O)c1occ(Cl)c1Cl
inactive: dose: 25.0 mg/kg/injection, schedule: Q01DX009 (ip), vehicle: water 101 % of control | dose: 50.0 mg/kg/injection, schedule: Q01DX009 (ip), vehicle: water 105 % of control | dose: 100.0 mg/kg/injection, schedule: Q01DX001 (ip), vehicle: saline 103 % of control | [9] 97 % of control | dose: 100.0 mg/kg/injection, schedule: Q01DX009 (ip), vehicle: water 91 % of control | dose: 100.0 mg/kg/injection, schedule: Q04DX003 (ip), vehicle: water 102 % of control | dose: 200.0 mg/kg/injection, schedule: Q01DX001 (ip), vehicle: saline 101 % of control | [10] 95 % of control | dose: 200.0 mg/kg/injection, schedule: Q04DX003 (ip), vehicle: water 90 % of control

Cc1ccc(C2C(C(=O)O)C2c2ccccc2)cc1 (configuration not stated)
inactive: dose: 100.0 mg/kg/injection, schedule: Q04DX002 (ip), vehicle: Klucel (hydroxypropylcellulose) (HPC) 106 % of control | dose: 200.0 mg/kg/injection, schedule: Q04DX002 (ip), vehicle: Klucel (hydroxypropylcellulose) (HPC) 95 % of control | dose: 400.0 mg/kg/injection, schedule: Q04DX002 (ip), vehicle: Klucel (hydroxypropylcellulose) (HPC) 92 % of control

O=C(OCC(O)C(O)C(O)C(O)COC(=O)c1ccccc1)c1ccccc1 (configuration not stated) (tested in a mixture with another compound)
inactive: dose: 100.0 mg/kg/injection, schedule: Q01DX001 (ip), vehicle: saline with Tween-80 103 % of control | dose: 200.0 mg/kg/injection, schedule: Q01DX001 (ip), vehicle: saline with Tween-80 100 % of control | dose: 400.0 mg/kg/injection, schedule: Q01DX001 (ip), vehicle: saline with Tween-80 90 % of control

O=C1C=CC(=C(c2ccccc2)c2ccccc2)C=C1
inactive: dose: 12.5 mg/kg/injection, schedule: Q01DX009 (ip), vehicle: Klucel (hydroxypropylcellulose) (HPC) 106 % of control | dose: 25.0 mg/kg/injection, schedule: Q01DX009 (ip), vehicle: Klucel (hydroxypropylcellulose) (HPC) 95 % of control | dose: 50.0 mg/kg/injection, schedule: Q01DX009 (ip), vehicle: Klucel (hydroxypropylcellulose) (HPC) 107 % of control | dose: 50.0 mg/kg/injection, schedule: Q01DX009 (ip), vehicle: saline 87 % of control | dose: 75.0 mg/kg/injection, schedule: Q04DX003 (ip), vehicle: saline 90 % of control | dose: 150.0 mg/kg/injection, schedule: Q04DX003 (ip), vehicle: saline 102 % of control

— PubChem BioAssay AID248 (DTP/NCI, 2004)
